# According to PMC8894198, “Biosynthetic Microcin J25 Exerts Strong Antibacterial, Anti-Inflammatory Activities, Low Cytotoxicity Without Increasing Drug-Resistance to Bacteria Target” (Frontiers in Immunology, 2022):
# Where a SMILES comes first, the peptide text is derived from it. Bridges are numbered along the chain shown (N, C = ends).
# Columns and labels:
# Type in all cases: cell-based
# [1] = system: E. coli K88 on IPEC-1 cells; test: Protection against E. coli K88 adhesion and colonization of IPEC-1 cells; conditions: 1, 2, 4, 8 × MIC for 3 h, then E. coli K88 for 2 h; plate counts; 6 biological replicates
# Procedure: Capacity of against E. coli K88 adhesion and colonization of IPEC-1 cells was evaluated. IPEC-1 cells were cultured with or without MccJ25 for 3 h in the absence or presence of E. coli K88 for 2 h. The E. coli K88 adhesion and colonization in the IPEC-1 cells was determined. E. coli K88 (mean CFU/ml ± SEMs) were determined by plate counts, and determined from three individual experiments.
# Figure S1. MccJ25 enhances intestinal epithelial cell to against E. coli K88 infection. […] IPEC-1 cells were cultured in the presence or absence of 1, 2, 4, 8 × MIC of MccJ25 for 3 h, then cells were treated with E. coli K88 for 2 h. The numbers of E. coli K88 were counted. E. coli K88 (mean CFU/ml ± SEMs) were determined by plate counts from 6 biological replicates. **P ≤ 0.01, ***P ≤ 0.001.
# E. coli K88 [2] = test: Sytox Green influx (membrane permeabilization); conditions: 0.5 × to 5 × MIC, dose dependent; ex 485 nm, em 520 nm
# Procedure: E. coli K88 cells were incubated at 37°C until growth reached the mid-log phase stage, and the cells were washed and resuspended in 10 mM NaH2PO4, pH 7.2 (2 × 10^7/mL). Cells were then incubated with […] Sytox Green for 15 min in a light-free environment.
# E. coli K88 [3] = conditions: sublethal concentrations 0.25 × and 0.5 × MIC
# Procedure: Mutation rates were based on rifampicin and refined ([28], [29]). Overnight cultures of E. coli K88 were diluted in 50 mL of LB broth at a ratio of 1:10,000 and grown for 3.5 h at 37°C. […] Eleven 1-mL replicates of each treatment group were grown at 37°C for 24 h. These cultures were then serially diluted and plated on LB agar plates containing 100 μg/mL rifampicin. Afterwards, plates were incubated at 37°C for 48 h. Single colonies on the plates were counted to determine CFU/mL. Mutagenesis rates were calculated using the bz-rates-mutation rate calculator (http://www.lcqb.upmc.fr/bzrates).
# E. coli LKFZ GL2 = test: MIC/MBC, clinical isolate; conditions: source pig stool
# Procedure: (§1) The minimum inhibitory concentration (MIC) refers to the lowest concentration that can produce a significant hindrance to bacterial growth in a drug sensitivity test by adopting a broth dilution, with certain refinements and modifications based on the previous description ([25], [26]). In short, MccJ25 was dissolved in sterilized distilled water (SDW), serial 2-fold dilutions were prepared in Mueller-Hinton broth (MHB) through a 96-well microtiter plate, and the final concentration of MccJ25 was maintained in the range of 0.003125 to 256 μg/mL. Then, 2 μL of standard and clinically relevant overnight broth cultures of bacteria were inoculated into each well at a concentration of 5 × 10^6 CFU/mL. Microtiter plates were incubated at 37°C for one full day. Two groups were set up: positive (medium with inoculum) and negative (medium only) controls. The minimum bactericidal concentration (MBC) was measured in LB medium and refers to the first drug dilution value at which the initial bacterial concentration was reduced by 99.99%. The final analysis was determined by the results of three replicated and independent experiments. To further assess and clarify the antimicrobial activity of MccJ25, the protective ability against E. coli adhesion, live/dead assay, and killing curve were performed, the detailed methods were provided in Supplementary Materials .
# E. coli LKFZ GZM4 = test: MIC/MBC, clinical isolate; conditions: source pig stool
# Procedure: as §1
# E. coli K88 (ETEC K88) = test: Killing curves (bactericidal activity at different growth phases)
# Procedure: Figure 1 Bactericidal activity assay of MccJ25 against E coli K88. Different concentrations of E coli K88 were cultured in LB containing different levels of MccJ25. E coli K88 cells (5 × 10^5 CFU/mL) were incubated and grown to different stages, including early-log (A), late-log (B) and stationary (C) phases. Additionally, bacteria, 5 × 10^8 CFU/mL, were cultured and grown to early-log (D), late-log (E) and stationary (F) phases. Data are means ± standard error of mean from 6 biological replicates.
# A purified single colony of E. coli K88 was inoculated into 5 mL of LB. Then, culture was incubated at 37◦C with shaking at 200 rpm overnight. The next day, the culture was diluted 1:100 in fresh LB and incubated at 37◦C with shaking at 200 rpm again. To test antimicrobial activity, the bacteria were grown until they reached log phase. […] The cultures were serially diluted with sterilized saline water and plated on LB agar at different hours. The plates were incubated at 37◦C overnight to count colony. Colonies were counted to determine CFU/mL. The experiment was conducted with two replicates in three independent trials. A Live/Dead BacLight Bacterial Viability Kit 7 (Molecular Probes, Inc., Eugene) was used to test bacterial viability. […] E. coli K88 cultures were incubated at 37◦C for 2 h and then incubated in the dark at ambient temperature with SYTO 9 and propidium iodide for 15 min. Bacteria were observed using a fluorescence microscope (EVOS XL Cell Imaging System).
# [4] = LB medium, 99.99% reduction, three independent experiments
# [5] = broth dilution in MHB, 37°C, three independent experiments
compound,measurement,setting,value
"CC[C@H](C)[C@H](NC(=O)CNC(=O)[C@@H](NC(=O)[C@H](Cc1ccccc1)NC(=O)[C@H](Cc1ccc(O)cc1)NC(=O)[C@@H]1CCC(=O)NCC(=O)NCC(=O)N[C@@H](C)C(=O)NCC(=O)N[C@@H](Cc2c[nH]cn2)C(=O)N[C@@H](C(C)C)C(=O)N2CCC[C@H]2C(=O)N1)C(C)C)C(=O)NCC(=O)N[C@H](C(=O)N1CCC[C@H]1C(=O)N[C@H](C(=O)N[C@@H](CO)C(=O)N[C@@H](Cc1ccccc1)C(=O)N[C@@H](Cc1ccc(O)cc1)C(=O)NCC(=O)O)[C@@H](C)CC)[C@@H](C)O [MccJ25, microcin J25] (GGAGHVPEYFVGIGTPISFYG-OH; lactam N-8 (inferred); C-terminus assumed)",E. coli K88 adhesion and colonization,[1],significantly protects
same,Sytox Green fluorescence / membrane integrity,E. coli K88 [2],membrane integrity was significantly disrupted
same,mutation rate compared to the control,E. coli K88 [3],did not show a greater difference in mutation rate compared to the control
same,MBC,E. coli LKFZ GL2; [4],0.500 µg/mL
same,MIC,E. coli LKFZ GL2; [5],0.250 µg/mL
same,MIC/MBC,E. coli LKFZ GL2; ratio,0.500
same,MBC,E. coli LKFZ GZM4; [4],1.000 µg/mL
same,MIC,E. coli LKFZ GZM4; [5],0.250 µg/mL
same,MIC/MBC,E. coli LKFZ GZM4; ratio,0.250
same,time in which all inoculants were killed,"E. coli K88 (ETEC K88); at the indicated MICs, stationary phase",≤ 6 h
same,time in which all inoculums were killed,"E. coli K88 (ETEC K88); inoculum 5 × 10^5 CFU/mL, 2 × MIC, each growth period (early log, late log, stationary), LB, 37°C",≤ 4 h
same,reduction of bacterial count,"E. coli K88 (ETEC K88); inoculum 5 × 10^5 CFU/mL, 4 × MIC, after 2 h incubation",5 log
same,reduction of bacterial count,"E. coli K88 (ETEC K88); inoculum 5 × 10^5 CFU/mL, at the indicated MICs, at 2 h, all phases",approximately 4 log
same,reduction of bacterial count,"E. coli K88 (ETEC K88); inoculum 5 × 10^8 CFU/mL at log phase, 4 × MIC, 12 h",8 log
same,reduction of bacterial count,"E. coli K88 (ETEC K88); inoculum 5 × 10^8 CFU/mL, 1 × MIC, within 7 h",6 log
